Reference: patent US20220105150A1, “AMPHIPATHIC ALPHA-HELICAL ANTIMICROBIAL PEPTIDES TREAT INFECTIONS BY GRAM-NEGATIVE PATHOGENS” (priority 2019, published 2022)
In brackets after ≈: the same amount, converted by molar mass. Square brackets hold non-standard residues; d marks the D form. Dab = NCC[C@H](N)C(=O)O

Tests used:
human red blood cells = test: Hemolytic activity on human red blood cells; settings: for HC50: red cells of human, 18 h
Method: For comparison, the inventors also determined the hemolytic activity after 18 hours at 37° C. Hemolysis can be determined with red blood cells (RBC) from various species including human red blood cells (hRBC).
(§1) The coupling procedure used 5 equivalents of Fmoc-D-amino acid or Fmoc-L-amino acid and HCTU (O-(1H-6-chlorobenzotriazole-1-yl)-1,1,3,3-tetramethyluronium hexafluorophosphate) and 6-Cl-HOBt (1-hydroxy-6-chloro-benztriazole) at 4.5 equivalents in DMF (Fisher Scientific, Denver, Colo.) and N-diisopropylethylamine (DIPEA) 10 equivalents (Oakwood Products, Inc., Estill, S.C.) in N-methyl-2-pyrrolidinone (NMP) (Fisher Scientific, Denver, Colo.) with the first and second couplings at room temperature for 30 min each. The deprotection procedure (removal of Fmoc protecting group) was carried out by treatment of the resin with 0.1 M HOBt (1-hydroxybenzotriazole) in DMF with 20% piperidine for 30 min. […] The resin was removed by filtration and peptide was precipitated with ice-cooled ethyl ether on ice for 15 min. Ether was decanted, the peptide was washed twice with ether and redissolved in acetonitrile/water (1:1, with 0.2% TFA) and the solution lyophilized to obtain the crude peptide. • Analytical and Preparative Purification by Reversed-Phase Chromatography: Analytical RP-HPLC: Column, Luna C18 (2), 250×4.6 mm I.D., 5 μm particle size, 100 Å pore size from Phenomenex (Torrance, Calif.). Run conditions: linear AB gradient (1% acetonitrile/min, starting from 2% acetonitrile) at a flow-rate of 1 ml/min, where eluent A is 0.2% aq. TFA and eluent B is 0.18% TFA in acetonitrile; temperature, 30° C. Preparative RP-HPLC: Peptides were dissolved in 0.2% aq. TFA containing 2% acetonitrile to a final concentration of 10 mg/ml. Following filtration through a 0.45 μm Millipore filter and subsequently through a 0.22 μm filter, the peptide solutions were loaded onto the column via multiple 20-ml injections into a 20-ml injection loop at a flow-rate of 10 ml/min. Column, Luna C18 (2), 250×30 mm I.D., 5 um particle size, 100 Å pore size from Phenomenex. Run conditions: 2% acetonitrile/min gradient up to an acetonitrile concentration 10% below that required to elute the peptide during analytical RP-HPLC, then shallow gradient elution (0.05% or 0.1% acetonitrile/min depending on the complexity of impurities near the product of interest on the analytical run of the crude peptide) at a flow-rate of 10 ml/min (same eluents as shown above for analytical RP-HPLC); at room temperature. • Temperature Profiling of Peptides on Reversed-phase HPLC to Measure Dimerization and Oligomerization: Purified peptides were analyzed on an Agilent 1200 series liquid chromatograph for temperature profiling using a Zorbax 300 SB-C8 column (150 mm×2.1 mm I.D.; 5 μm particle size, 300 Å pore size) from Agilent Technologies. […] Temperature profiling was carried out on peptide mixtures run at each temperature in 2° C. increments from 5° C. to 41° C. and 10° C. increments from 5° C. to 75° C. Twenty minutes was allowed between runs for temperature equilibration. • Characterization of Helical Structure: The mean residue molar ellipticities of peptides were determined by circular dichroism (CD) spectroscopy, using a Jasco J-815 spectropolarimeter (Jasco Inc. Easton, Md., USA) at 5° C. under KP buffer (50 mM NaH2PO4/Na2HPO4/100 mM KCl, pH 7.0) as well as in the presence of an α-helix inducing solvent, 2,2,2-trifluoroethanol, TFE, (50 mM NaH2PO4/Na2HPO4/100 mM KCl, pH 7.0 buffer/50% TFE). A 10-fold dilution of an approximately 500 μM stock solution of the peptide analogs was loaded into a 0.1 cm quartz cell and its ellipticity scanned from 195 to 250 nm.

[1] = test system: Acinetobacter baumannii strains resistant to Polymyxin B and Colistin; settings: strains resistant to Polymyxin B and Colistin, 24 h
Source text: as §1

[2] = test system: Acinetobacter baumannii isolates resistant to classical antibiotics; format: cell-based; settings: isolates resistant to classical antibiotics
Source text: Thus, shortening the number of carbon atoms between the side-chain amino group and the α-carbon atom from four (Lys) to one (diaminopropionic acid) had very little effect on antibacterial activity (Table 2). We also determined the antibacterial activity of our five AMPs against 20 additional Acinetobacter baumannii isolates from four continents, 12 different countries and 17 different cities that were resistant to 18 different antibiotics. […] Thus, it is very clear that changing the type of positively-charged residue on the polar face of these AMPs had very little effect on the antibacterial activities.

[3] = target: the molecule itself; test: RP-HPLC temperature profiling, self-association (dimerization/oligomerization) against random coil control RC
serum proteins = test: cell-based or functional assay

Molecule | HC50 Fold Improvement (human red blood cells) | HC50 (human red blood cells) | MIC MB9941 [1] | MIC MB9949 [1] | MIC MB9951 [1] | MIC MB9952 [1] | MIC MB9953 [1] | MIC MB9963 [1] | MIC 101887 [2] | MIC 961997 [2] | MIC 963618 [2] | MIC 964304 [2] | MIC 977751 [2] | MIC 981653 [2] | MIC 1002956 [2] | MIC 1007660 [2] | MIC 1010282 [2] | MIC 1035166 [2] | PA (self-association parameter) [3] | other results
CC(=O)N[C@H](CCCCN)C(=O)N[C@H](CC(C)C)C(=O)N[C@@H](CN)C(=O)N[C@H](CO)C(=O)N[C@H](CC(C)C)C(=O)N[C@H](CC(C)C)C(=O)N[C@@H](CN)C(=O)N[C@@H](C(=O)N[C@H](CC(C)C)C(=O)N[C@H](CO)C(=O)N[C@@H](CN)C(=O)N[C@H](C)C(=O)N[C@H](CCCCN)C(=O)N[C@H](C)C(=O)N[C@H](C)C(=O)N[C@H](CCCCN)C(=O)N[C@H](CC(C)C)C(=O)N[C@@H](CN)C(=O)N[C@@H](C(=O)N[C@H](CC(C)C)C(=O)N[C@H](CC(C)C)C(=O)N[C@@H](CN)C(=O)N[C@H](C)C(=O)N[C@H](CC(C)C)C(=O)N[C@H](CO)C(=O)N[C@@H](CN)C(N)=O)[C@H](C)O)[C@H](C)O [D105(Lys^1-6Dap-1), Ac-KL(L-Dap)SLL(L-Dap)TLS(L-Dap)AKAAKL(L-Dap)TLL(L-Dap)ALS(L-Dap)-amide] | >287 | >1148 µM | 0.8 µM (≈ 2.09 µg/mL) | 0.8 µM (≈ 2.09 µg/mL) | 3.0 µM (≈ 7.84 µg/mL) | 0.8 µM (≈ 2.09 µg/mL) | 3.0 µM (≈ 7.84 µg/mL) | 1.5 µM (≈ 3.92 µg/mL) | 0.8 µM (≈ 2.09 µg/mL) | 1.5 µM (≈ 3.92 µg/mL) | 0.8 µM (≈ 2.09 µg/mL) | 1.5 µM (≈ 3.92 µg/mL) | 0.8 µM (≈ 2.09 µg/mL) | 0.8 µM (≈ 2.09 µg/mL) | 0.8 µM (≈ 2.09 µg/mL) | 0.8 µM (≈ 2.09 µg/mL) | 0.8 µM (≈ 2.09 µg/mL) | 0.8 µM (≈ 2.09 µg/mL) | – | –
CC(=O)N[C@H](CCCCN)C(=O)N[C@H](CC(C)C)C(=O)N[C@@H](CCN)C(=O)N[C@H](CO)C(=O)N[C@H](CC(C)C)C(=O)N[C@H](CC(C)C)C(=O)N[C@@H](CCN)C(=O)N[C@@H](C(=O)N[C@H](CC(C)C)C(=O)N[C@H](CO)C(=O)N[C@@H](CCN)C(=O)N[C@H](C)C(=O)N[C@H](CCCCN)C(=O)N[C@H](C)C(=O)N[C@H](C)C(=O)N[C@H](CCCCN)C(=O)N[C@H](CC(C)C)C(=O)N[C@@H](CCN)C(=O)N[C@@H](C(=O)N[C@H](CC(C)C)C(=O)N[C@H](CC(C)C)C(=O)N[C@@H](CCN)C(=O)N[C@H](C)C(=O)N[C@H](CC(C)C)C(=O)N[C@H](CO)C(=O)N[C@@H](CCN)C(N)=O)[C@H](C)O)[C@H](C)O [D86(Lys^1-6Dab-1), Ac-KL(L-Dab)SLL(L-Dab)TLS(L-Dab)AKAAKL(L-Dab)TLL(L-Dab)ALS(L-Dab)-amide] | >186 | >742 µM | – | – | – | – | – | – | 0.7 µM (≈ 1.89 µg/mL) | 0.7 µM (≈ 1.89 µg/mL) | 0.7 µM (≈ 1.89 µg/mL) | 1.5 µM (≈ 4.05 µg/mL) | 0.7 µM (≈ 1.89 µg/mL) | 0.7 µM (≈ 1.89 µg/mL) | 0.7 µM (≈ 1.89 µg/mL) | 0.7 µM (≈ 1.89 µg/mL) | 0.7 µM (≈ 1.89 µg/mL) | 0.7 µM (≈ 1.89 µg/mL) | – | hemolytic activity against red blood cells from four blood donors (human red blood cells): very little hemolytic activity
CC(=O)N[C@H](CCCCN)C(=O)N[C@H](CC(C)C)C(=O)N[C@@H](CCN)C(=O)N[C@H](CO)C(=O)N[C@H](CC(C)C)C(=O)N[C@H](CC(C)C)C(=O)N[C@@H](CCN)C(=O)N[C@@H](C(=O)N[C@H](CC(C)C)C(=O)N[C@H](CO)C(=O)N[C@@H](CCN)C(=O)N[C@H](C)C(=O)N[C@H](CCCCN)C(=O)N[C@H](C)C(=O)N[C@H](C)C(=O)N[C@H](CCCCN)C(=O)N[C@H](CC(C)C)C(=O)N[C@@H](CCN)C(=O)N[C@@H](C(=O)N[C@H](CC(C)C)C(=O)N[C@H](CC(C)C)C(=O)N[C@@H](CCN)C(=O)N[C@H](C)C(=O)N[C@H](CC(C)C)C(=O)N[C@H](CO)C(=O)N[C@H](CO)C(N)=O)[C@H](C)O)[C@H](C)O [D102(Lys^1Ser^26-5Dab-1), Ac-KL(L-Dab)SLL(L-Dab)TLS(L-Dab)AKAAKL(L-Dab)TLL(L-Dab)ALS(Ser)-amide] | >177 | – | 0.4 µM (≈ 1.07 µg/mL) | 0.7 µM (≈ 1.88 µg/mL) | 0.7 µM (≈ 1.88 µg/mL) | 0.7 µM (≈ 1.88 µg/mL) | 1.4 µM (≈ 3.76 µg/mL) | 0.7 µM (≈ 1.88 µg/mL) | 0.7 µM (≈ 1.88 µg/mL) | 1.5 µM (≈ 4.03 µg/mL) | 0.4 µM (≈ 1.07 µg/mL) | 0.7 µM (≈ 1.88 µg/mL) | 0.7 µM (≈ 1.88 µg/mL) | 0.4 µM (≈ 1.07 µg/mL) | 0.4 µM (≈ 1.07 µg/mL) | 0.4 µM (≈ 1.07 µg/mL) | 0.7 µM (≈ 1.88 µg/mL) | 0.7 µM (≈ 1.88 µg/mL) | – | MIC MB9955 [1]: 0.7 µM (≈ 1.88 µg/mL)
Ac-[dK][dL][Dab][dS][dL][dL][Dab][dT][dL][dS][Dab][dA][dK][dA][dA][dK][dL][Dab][dT][dL][dL][Dab][dA][dL][dS][dS]-NH2 (SMILES CC(=O)N[C@H](CCCCN)C(=O)N[C@H](CC(C)C)C(=O)N[C@@H](CCN)C(=O)N[C@H](CO)C(=O)N[C@H](CC(C)C)C(=O)N[C@H](CC(C)C)C(=O)N[C@@H](CCN)C(=O)N[C@@H](C(=O)N[C@H](CC(C)C)C(=O)N[C@H](CO)C(=O)N[C@@H](CCN)C(=O)N[C@H](C)C(=O)N[C@H](CCCCN)C(=O)N[C@H](C)C(=O)N[C@H](C)C(=O)N[C@H](CCCCN)C(=O)N[C@H](CC(C)C)C(=O)N[C@@H](CCN)C(=O)N[C@@H](C(=O)N[C@H](CC(C)C)C(=O)N[C@H](CC(C)C)C(=O)N[C@@H](CCN)C(=O)N[C@H](C)C(=O)N[C@H](CC(C)C)C(=O)N[C@H](CO)C(=O)N[C@H](CO)C(N)=O)[C@H](C)O)[C@H](C)O, Designed 26-residue AMP; Ser26; Lys13/Lys16 specificity determinants; also called D102(5 Dab-1)) [D102(Lys1Ser26-5Dab-1)] | – | – | – | – | – | – | – | – | – | – | – | – | – | – | – | – | – | – | 0 min | MIC (µM) against A. baumannii strain 649 in 25% human serum (no serum: 0.4) (serum proteins): 0.7 µM
Ac-[dK][dL][dK][dS][dL][dL][dK][dT][dL][dS][dK][dA][dK][dA][dA][dK][dL][dK][dT][dL][dL][dK][dA][dL][dS][dS]-NH2 (SMILES CC(=O)N[C@H](CCCCN)C(=O)N[C@H](CC(C)C)C(=O)N[C@H](CCCCN)C(=O)N[C@H](CO)C(=O)N[C@H](CC(C)C)C(=O)N[C@H](CC(C)C)C(=O)N[C@H](CCCCN)C(=O)N[C@@H](C(=O)N[C@H](CC(C)C)C(=O)N[C@H](CO)C(=O)N[C@H](CCCCN)C(=O)N[C@H](C)C(=O)N[C@H](CCCCN)C(=O)N[C@H](C)C(=O)N[C@H](C)C(=O)N[C@H](CCCCN)C(=O)N[C@H](CC(C)C)C(=O)N[C@H](CCCCN)C(=O)N[C@@H](C(=O)N[C@H](CC(C)C)C(=O)N[C@H](CC(C)C)C(=O)N[C@H](CCCCN)C(=O)N[C@H](C)C(=O)N[C@H](CC(C)C)C(=O)N[C@H](CO)C(=O)N[C@H](CO)C(N)=O)[C@H](C)O)[C@H](C)O, Designed 26-residue AMP; Lys at 3, 7, 11, 18, 22; Ser26; Lys13/Lys16 specificity determinants; also called D101(5 Lys-1)) [D101(Lys1Ser26-5Lys-1)] | – | – | – | – | – | – | – | – | – | – | – | – | – | – | – | – | – | – | 6 min | MIC (µM) against A. baumannii strain 649 in 25% human serum (no serum: 0.7) (serum proteins): 0.7 µM
